Assay [1] concerns the target T1, 20S proteasome β5 chymotrypsin-like activity (Suc-LLVY-AMC) (Homo sapiens, UniProt P20618+P28074).
T1 construct: Proteasomes were isolated from red blood cells; from tissue; host or cells: red blood cells
The assay can be described thus: Protease assay, chymotrypsin-like activity of isolated 20S proteasomes (LLVY substrate). The class given is biochemical. Particulars: isolated 20S proteasome; LLVY-MCA 50 μM; 15 min pre-incubation; read-out: IC50 β5 Chymotrypsin-like (Y). Here is the method:
Proteasomes were isolated from red blood cells. Cells were lysed with DTT (1 mM), and the stroma-free supernatant was loaded on DEAE-sepharose (Toyopearls). Proteasome was eluted with an NaCl-gradient in TEAD (20 mM TrisCl pH 7.4, 1 mM EDTA, 1 mM azide, 1 mM DTT) of 100 to 300 mM NaCl. Proteasome was concentrated using ammonium sulfate-precipitation (between 40 and 70% saturation) and was separated in a 10-40% sucrose-gradient through centrifugation at 40.000 rpm for 16 hours (SW40; L7, Beckman & Coulter). Finally, the proteasomes were purified on a MonoQ-column and eluted with an NaCl-gradient at about 280 mM NaCl. The fractions containing purified proteasome were dialysed against 50 mM NaCl in TEAD and stored on ice. The purity was determined using SDS-PAGE.
(§1) Suc-LLVY-AMC, Z-VGR-AMC and LLE-AMC (BACHEM, Calbiochem) was used, in order to determine the chymotrypsin-like, trypsin-like or caspase-like (post-acidic)-activities of the proteasome. Substrate was incubated with proteasome at 37° C. in assay-buffer (20 mM Tris/Cl, pH 7.2, 1 mM EDTA, 1 mM DTT) for one hour. 100 ng proteasome was pre-incubated with 0.01-10 μM of the inhibitor for […]. The reaction was started by the addition of substrate (50 μM). The AMC as released was detected using fluorescence emission at 460 nm (excitation at 390 nm) using a TECAN-fluorimeter. The activity was calculated in fluorescence-units. The inhibition is depicted by IC50-values.
The chymotrypsin-like (Suc-LLVY-AMC), the trypsin-like (Bz-VGR-AMC), and the caspase-like (Z-LLE-AMC)-activities of 20S proteasomes were determined following incubation for one hour at 37° C.
The IC50-values form the inhibition of the proteasome were calculated at increasing concentrations of the inhibitor. The samples were pre-incubated for 15 min in ice. The assay was started through the addition of 50 μM of one of the following fluorogenic peptide substrates:
The release of MCA was determined at 460 nm emission (excitation 390 nm). The IC50-values as calculated for MG132 served as controls.

In assay [2] the test system is Human melanoma cells (MeWo). As to the kind of experiment: Viability of human melanoma cells (MeWo), crystal violet-staining. The format is cell-based. The following applies: 72 h. On the procedure: A, Human melanoma cells (MeWo) were treated with increasing concentrations of the compounds 15 or 3 (MG132) for 72 hours. The viability of the cells after the treatment with compound 15 (-♦-) and with MG132 (-□-) was detected by a crystal-violet-staining. B and C, MeWo cells were co-cultivated with the compounds 15 and 3 (MG132) for 24 hours. The cells were subsequently fixed in 70% ethanol, and treated with RNAse A. The DNA was stained with propidium iodide (5 μg/ml), and analysed by means of FACS (FACS Calibur flow cytometer; Beckton Dickinson). The statistical significance was detected by the chi-square-test. The relative distribution of the cells that were present in the G1-(black), in the S-(white) or in the G2 phase (hatched) of the cellular cycle is shown for both compounds as examined (15 in B and MG132 in C).
Human melanoma cells (MeWo) were incubated for 72 h with different concentrations of the inhibitor 15 and 28, and the viability of the cells was determined by means of crystal violet-staining (FIG. 8).

In assay [3] the test system is caspase 3/7 activation in HeLa-cells. As to the kind of experiment: Apoptosis-assay, caspase 3/7-activity (Apo-One). The format is cell-based. The following applies: 1 μM, 20 hours. Here is the method:
HeLa-cells that were cultivated for 20 hours in the presence of the given inhibitor, were subsequently incubated for 2 hours with caspase-substrate (Apo-One; Promega). The activation of caspases 3/7 was measured at 538 nm (excitation at 485 nm). Treatment of the cells with TNFα or with MG132 served as control.
For this, 10,000 HeLa-cells pro well were seeded in a 96-well-plate, and co-cultivated for 20 hours with 1 μM of the inhibitors 7, 8, 11, 13-16, 18, 20-23 and 25-28. The induction of apoptosis was determined by measuring of the caspase 3/7-activity (Apo-One®-Assay, Promega).

Assay [4] deals with poly-ubiquitinylated proteins in HeLa-cells. As to the kind of experiment: Accumulation of poly-ubiquitinylated proteins, Western blot. The class given is cell-based. The following applies: 1 μM for compound 15. Here is the method: A, HeLa-cells were cultivated were 24 hours in the presence of the inhibitor. The protein concentration was determined in accordance with the cellular lysis according to Bradford in order to normalise the proteasomal activities to the different amounts of cells. Subsequently Complete (Roche) was added to all lysates, and the proteasomal activity was determined through the hydrolysis of Suc-LLVY-AMC. B, HeLa-cells was incubated with 1 μM of compound 15 for 2, 4, 6 and 24 hours. Cells were lysed, and proteins were separated through SDS-PAGE on a 10% gel, blotted to a PVDF-membrane. The accumulation of the poly-ubiquitinylated proteins was detected in a Western blot by an anti-ubiquitine-antibody (DAKO). C, HeLa-Cells were treated with increasing concentrations of the inhibitor 15, 25, 26, 27, and 28 for 24 hours (lane 1: without inhibitor; lane 2: 10 nM; lane 3: 100 nM and lane 4: 1 μM of the given inhibitor). Cells were lysed, proteins were separated on 15% gels, and the accumulation of the poly-ubiquitinylated proteins was controlled through Western blot.
A specific inhibition of the proteasome lead to an accumulation of poly-ubiquitinylated proteins. Indeed, the amount of poly-ubiquitinylated proteins increased during the incubation with the inhibitors. First effects were observed after 2 hours, for compound 15 (FIG. 6B) as well as for compounds 20, 22, 25 and 28 (data not shown).
50 μg of whole-cell-lysate were separated by SDS-PAGE, and blottet onto a PVDF-membrane (Millipore). The blots were blocked by means of a 5% milk-suspension. The poly-ubiquitinylated proteins were detected by anti-ubiquitin-antibody (DAKO), and anti-rabbit, POD-labelled, as a secondary antibody (DIANOVA), and visualized through ECL.
Background: A western blot detects proteins with antibodies after separation by electrophoresis.

Another assay relates to T2, 20S proteasome.
T2 construct: Proteasomes were isolated from red blood cells; from tissue; host or cells: red blood cells
As to the kind of experiment: Inhibition of the different proteasomal activities, summary statements. The class given is biochemical. The following applies: for which proteasomal activities are inhibited (site selectivity): isolated proteasomes, specific substrates. On the procedure: The specific inhibition of a single catalytic site is of specific interest for the development of drugs. Thus, the inhibition of the different proteasomal activities of the proteasome was analysed (see also example 6). The different cleavage-preferences of the proteasome were determined by the specific substrate for the hydrophobic (chymotrypsin-like), the trypsine-like and the caspase-like activities of isolated proteasomes.
as §1
The effects thereof were compared with the one of the commonly used proteasomal inhibitor 3 (MG132). The chymotrypsin-like (Suc-LLVY-AMC), the trypsin-like (Bz-VGR-AMC), and the caspase-like (Z-LLE-AMC)-activities of 20S proteasomes were determined following incubation for one hour at 37° C.

SMILES strings stand for the structures. “Also recorded” adds a separate entry of the source. Where a SMILES comes first, the peptide text is derived from it. The star is where a group is joined. Cbz = O=C(OCc1ccccc1)*; OtBu = CC(C)(C)O* Where only a bound is given, the exact number is not on record here.

In the case of `CC(C)CC(C=O)NC(=O)C(CC(=O)OC(C)(C)C)NC(=O)C(CC(C)C)NC(=O)OCc1ccccc1` (stereo not drawn) [Compound 15, Z-Leu-Asp(O^tBu)Leu-CHO] (Cbz-Leu-Asp(OtBu)-Leu-aldehyde; configuration not given here), the IC50 in assay [1] is 58 nM; in assay [2] (Homo sapiens, read-out: concentration at rate of survival of 50% of the cells), 15 nM; at 20S proteasome (proteasomal activity not given, read-out: IC50-values of the most potent inhibitors), less than 60 nM. Further, the “sensitivity of tumour cells” value in assay [2] is “increased sensitivity of tumour cells”. In assay [3], the “induction of apoptosis (activation of caspase 3 and 7)” value was “beginning apoptosis; also recorded: strong induction of apoptosis”. Also, the “first effects on accumulation of poly-ubiquitinylated proteins observed after” value in assay [4] was 2 h. Besides, the “which proteasomal activities are inhibited (site selectivity)” value in the assay on 20S proteasome is “inhibited all of the proteasomal hydrolytic activities”.
Regarding `CC(C)C[C@H](NC(=O)OCc1ccccc1)C(=O)N[C@@H](CC(C)C)C(=O)N[C@@H](CC(C)C)C(=O)C(=O)Nc1ccccc1` [Compound 28], the IC50 in assay [1] is 72 nM. Also, in assay [2], the “sensitivity of tumour cells” value is “increased sensitivity of tumour cells”. The “induction of apoptosis (activation of caspase 3 and 7)” value in assay [3] was “beginning apoptosis; also recorded: strong induction of apoptosis”. Moreover, the “first effects on accumulation of poly-ubiquitinylated proteins observed after” value in assay [4] is 2 h. The “which proteasomal activities are inhibited (site selectivity)” value in the assay on 20S proteasome is reported as “exclusive reduction of the chymotryptic activity”.

Values taken from patent publication US8835392B2, “Mimetic peptides and the use thereof in the form of 20S, 26S and immunoproteasome inhibitors” (Technische Universität, priority 2005, dated 2014).
